Test results reported in patent US20080107609A1, “PULMONARY DISEASE TREATMENT” (Schering Corporation, priority 2003, published 2008).

How the values were obtained:
[1] = test system: patients suffering from chronic obstructive pulmonary disease; assay: Example 1: randomized double-blind clinical trial of orally inhaled mometasone furoate vs placebo, FEV1 after salbutamol; assay type: in vivo, human; conditions: for ΔFEV1: dry powder inhaler, COPD patients previously on inhaled corticosteroid, average change from study start, post-salbutamol
Method: A randomized, double-blind crossover clinical trial was conducted to compare the effects of orally inhaled mometasone furoate and a placebo, in patients suffering from chronic obstructive pulmonary disease. The drug was delivered from a multiple-dose dry powder inhaler charged with a mixture of mometasone furoate and lactose (having a component weight ratio of 1:5.8) in an agglomerated form. Placebo inhaler units contained only the lactose powder. The drug-containing inhalers delivered the following mean amounts of mometasone furoate particles per inhalation, as measured using an Anderson Cascade Impactor (from Thermo Anderson, Smyrna, Ga. U.S.A.) at an air flow rate through the inhaler of 60 L/minute:
Evaluable patients participating in the study numbered 578, all having been diagnosed with COPD of moderate severity, being at least 40 years of age, and also being maintained for at least three months prior to commencement of the study on daily inhalations of a corticosteroid drug (even though there was no regulatory agency-approved COPD therapy using an inhaled corticosteriod). […] The patients were enrolled at a total of 35 sites in 24 countries, and were prescribed two inhalations from the supplied inhaler device each evening for a twelve-month period, with evaluations by a physician after 1, 3, 6, 9, and 12 months of participation. A total of 294 of the patients were randomized to receive inhalers containing the drug, while 284 patients received placebo inhalers. All of the patients were permitted to further use inhaled salbutamol as needed.
Results of the study were as follows, where the ΔFEV1 value represents the average of differences between the patients' FEV1 scores at the beginning of the study and the FEV1 scores at the time of the subsequent measurement, with all of the FEV1 testing being performed after administration of inhaled salbutamol. For each time point, the number of patients remaining in the study is given.
From a statistical analysis of the data, it was determined that the mean change from baseline over the twelve-month period was an increase in ΔFEV1 of 4 mL for patients receiving the mometasone furoate, and a decrease of 36 mL for placebo patients.

[2] = test system: patients suffering from chronic obstructive pulmonary disease; assay: Example 2: randomized double-blind parallel-group clinical trial of orally inhaled mometasone furoate vs placebo, FEV1 after salbutamol; assay type: in vivo, human; conditions: for ΔFEV1: corticosteroid-naive COPD patients, post-salbutamol; for mean change from baseline in ΔFEV1 over the twelve-month period: statistical analysis, increase
Method: A randomized double-blind, parallel-group clinical trial was conducted to compare the effects of orally inhaled mometasone furoate and a placebo, in patients suffering from chronic obstructive pulmonary disease. The multiple dose dry powder inhaler and placebo inhaler described in the preceding example were used for this study. A total of 769 patients met the criteria for evaluability, from 95 sites in 11 countries. The patients had not previously been treated with corticosteroids, either inhaled or orally dosed, but otherwise met the criteria of the preceding example. In the study, patients were prescribed either two inhalations from the inhaler each evening, or one inhalation each morning and one inhalation each evening, with a twelve-month treatment duration. Results of the study were as follows, where the ΔFEV1 value represents the average of differences between the patients' FEV1 scores at the beginning of the study and the FEV1 scores at the time of the subsequent measurement, with all of the FEV1 testing being performed after administration of inhaled salbutamol. For each time point, the number of patients remaining in the study is given.

C[C@@H]1C[C@H]2[C@@H]3CCC4=CC(=O)C=C[C@]4(C)[C@@]3(Cl)[C@@H](O)C[C@]2(C)[C@@]1(OC(=O)c1ccco1)C(=O)CCl [mometasone furoate, 9α,21-Dichloro-11β,17-dihydroxy-16α-methylpregna-1,4-diene-3,20-dione 17-(2-furoate)]
ΔFEV1 ([1]; 1 month, two inhalations each evening): 5 mL
ΔFEV1 ([1]; 3 months, two inhalations each evening): 9 mL
ΔFEV1 ([1]; 6 months, two inhalations each evening): -2 mL
ΔFEV1 ([1]; 9 months, two inhalations each evening): 22 mL
ΔFEV1 ([1]; 12 months, two inhalations each evening): 7 mL
difference between treatments (drug vs placebo) in mean ΔFEV1 change ([1]; longitudinal analysis of variance model, twelve-month period): statistically significant
mean change from baseline in ΔFEV1 over the twelve-month period ([1]; statistical analysis (longitudinal analysis of variance), two inhalations each evening, increase): 4 mL
pulmonary function over the trial period (FIG. 1) ([1]; twelve months, two inhalations each evening): generally maintained or slightly improved their pulmonary function
ΔFEV1 ([2]; Once Daily (two inhalations each evening), 1 month): 66 mL
ΔFEV1 ([2]; Once Daily (two inhalations each evening), 3 months): 57 mL
ΔFEV1 ([2]; Once Daily (two inhalations each evening), 6 months): 44 mL
ΔFEV1 ([2]; Once Daily (two inhalations each evening), 9 months): 37 mL
ΔFEV1 ([2]; Once Daily (two inhalations each evening), 12 months): 38 mL
ΔFEV1 ([2]; Twice Daily (one inhalation each morning and one each evening), 1 month): 72 mL
ΔFEV1 ([2]; Twice Daily (one inhalation each morning and one each evening), 3 months): 79 mL
ΔFEV1 ([2]; Twice Daily (one inhalation each morning and one each evening), 6 months): 36 mL
ΔFEV1 ([2]; Twice Daily (one inhalation each morning and one each evening), 9 months): 58 mL
ΔFEV1 ([2]; Twice Daily (one inhalation each morning and one each evening), 12 months): 31 mL
mean change from baseline in ΔFEV1 over the twelve-month period ([2]; dosed once daily): 50 mL
mean change from baseline in ΔFEV1 over the twelve-month period ([2]; dosed twice daily): 53 mL
pulmonary function over the trial period (FIG. 2) ([2]; twelve months, once daily and twice daily): generally improved their pulmonary function
comparison of both mometasone furoate treatments (once and twice daily) with placebo ([2]; twelve-month period, ΔFEV1): statistically significantly superior to the placebo treatment
